Test results from PubChem BioAssay AID330 (DTP/NCI, 2004).
Several values for one entry are separate records, joined by “and”; a condition that tells them apart may be missing. Equal entries are not always repeated. Toxic doses and inconclusive results are not listed.

Test system: P388 leukemia ip, CD2F1 mice, survival T/C
Assay: NCI In Vivo Anticancer Drug Screen. Data for tumor model P388 Leukemia (intraperitoneal) in CD2F1 (CDF1) mice
Conditions: endpoint: median survival time, higher = longer survival
Summary of the method: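 Mice carrying the transplanted tumor received test compound or vehicle. Survival was recorded in each group, and the value is the treated-group measurement divided by that of the vehicle-treated control group.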

[1] = dose: 50.0 mg/kg/injection, schedule: Q01DX005 (ip), vehicle: Klucel (hydroxypropylcellulose) (HPC)
[2] = dose: 100.0 mg/kg/injection, schedule: Q01DX005 (ip), vehicle: Klucel (hydroxypropylcellulose) (HPC)
[3] = dose: 50.0 mg/kg/injection, schedule: Q01DX009 (ip), vehicle: saline
[4] = dose: 200.0 mg/kg/injection, schedule: Q01DX005 (ip), vehicle: Klucel (hydroxypropylcellulose) (HPC)
[5] = dose: 60.0 mg/kg/injection, schedule: Q01DX005 (ip), vehicle: saline with Tween-80
[6] = dose: 120.0 mg/kg/injection, schedule: Q01DX005 (ip), vehicle: saline with Tween-80
[7] = dose: 240.0 mg/kg/injection, schedule: Q01DX005 (ip), vehicle: saline with Tween-80
[8] = dose: 60.0 mg/kg/injection, schedule: Q01DX005 (ip), vehicle: Klucel (hydroxypropylcellulose) (HPC)
[9] = dose: 120.0 mg/kg/injection, schedule: Q01DX005 (ip), vehicle: Klucel (hydroxypropylcellulose) (HPC)
[10] = dose: 240.0 mg/kg/injection, schedule: Q01DX005 (ip), vehicle: Klucel (hydroxypropylcellulose) (HPC)
[11] = dose: 50.0 mg/kg/injection, schedule: Q01DX001 (ip), vehicle: Klucel (hydroxypropylcellulose) (HPC)
[12] = dose: 100.0 mg/kg/injection, schedule: Q01DX001 (ip), vehicle: Klucel (hydroxypropylcellulose) (HPC)
[13] = dose: 200.0 mg/kg/injection, schedule: Q01DX001 (ip), vehicle: Klucel (hydroxypropylcellulose) (HPC)
[14] = dose: 50.0 mg/kg/injection, schedule: Q01DX009 (ip), vehicle: other

Structure (SMILES): NCC(CC(=O)O)c1ccc(Cl)cc1 (stereo not given)
- T/C [1]: 94 % of control
- T/C [2]: 93 % of control

Structure (SMILES): CNNS(=O)(=O)CC(O)C(Cl)(Cl)Cl (stereo not given)
- T/C [3]: 106 % of control
- T/C (dose: 100.0 mg/kg/injection, schedule: Q01DX009 (ip), vehicle: saline): 101 % of control

Structure (SMILES): COC(=O)C1c2c(C)cc3n2C(C=C(C)C3)C1C(=O)OC (stereo not given)
- T/C (dose: 100.0 mg/kg/injection, schedule: Q04DX003 (ip), vehicle: Klucel (hydroxypropylcellulose) (HPC)): 100 % of control
- T/C (dose: 200.0 mg/kg/injection, schedule: Q04DX003 (ip), vehicle: Klucel (hydroxypropylcellulose) (HPC)): 105 % of control
- T/C (dose: 400.0 mg/kg/injection, schedule: Q04DX003 (ip), vehicle: Klucel (hydroxypropylcellulose) (HPC)): 95 % of control

Structure (SMILES): Clc1ccc(N2C(c3ccccc3)=N[C@@H](N3CCOCC3)[C@@H]2N2CCOCC2)cc1
- T/C [1]: 100 % of control
- T/C [2]: 100 % of control
- T/C [4]: 105 % of control

Structure (SMILES): C/C=C/C=C(/C=O)[C@@H](O)C(C)=O
- T/C (dose: 2.0 mg/kg/injection, schedule: Q01DX009 (ip), vehicle: saline + alcohol): 121 % of control and 93 % of control
- T/C (dose: 4.0 mg/kg/injection, schedule: Q01DX009 (ip), vehicle: saline + alcohol): 101 % of control
- T/C (dose: 8.0 mg/kg/injection, schedule: Q01DX009 (ip), vehicle: saline + alcohol): 101 % of control
- T/C (dose: 16.0 mg/kg/injection, schedule: Q01DX009 (ip), vehicle: saline + alcohol): 111 % of control

Structure (SMILES): CCC(C)P(=O)(N1CC1C)N1CC1C (stereo not given)
- T/C (dose: 1.5 mg/kg/injection, schedule: Q01DX009 (ip), vehicle: saline): 104 % of control
- T/C (dose: 3.0 mg/kg/injection, schedule: Q01DX009 (ip), vehicle: saline): 109 % of control
- T/C (dose: 6.0 mg/kg/injection, schedule: Q01DX009 (ip), vehicle: saline): 109 % of control
- T/C (dose: 12.5 mg/kg/injection, schedule: Q04DX003 (ip), vehicle: saline): 95 % of control
- T/C (dose: 25.0 mg/kg/injection, schedule: Q04DX003 (ip), vehicle: saline): 95 % of control
- T/C (dose: 50.0 mg/kg/injection, schedule: Q04DX003 (ip), vehicle: saline): 113 % of control

Structure (SMILES): O=C(Nc1ccccc1-c1ccccc1)C(=O)Nc1ccccc1-c1ccccc1
- T/C (dose: 50.0 mg/kg/injection, schedule: Q01DX005 (ip), vehicle: saline with Tween-80): 90 % of control
- T/C (dose: 100.0 mg/kg/injection, schedule: Q01DX005 (ip), vehicle: saline with Tween-80): 89 % of control

Structure (SMILES): COC(=O)c1nc2nnc(NC(=O)Nc3ccc(Cl)cc3)n2c(-c2ccc(Cl)cc2)c1C
- T/C [5]: 99 % of control
- T/C [6]: 99 % of control
- T/C [7]: 100 % of control

Structure (SMILES): CC1(N2CCCCC2)C(=O)NC(=O)N(C2CCCCC2)C1=O (stereo not given)
- T/C [8]: 88 % of control
- T/C [9]: 95 % of control
- T/C [10]: 89 % of control

Structure (SMILES): CC(C)(C)[Si](C)(C)ONC(N)=O
- T/C (dose: 12.5 mg/kg/injection, schedule: Q01DX009 (ip), vehicle: distilled water + Tween-80): 99 % of control
- T/C (dose: 25.0 mg/kg/injection, schedule: Q01DX009 (ip), vehicle: distilled water + Tween-80): 94 % of control
- T/C (dose: 50.0 mg/kg/injection, schedule: Q01DX009 (ip), vehicle: distilled water + Tween-80): 93 % of control
- T/C (dose: 100.0 mg/kg/injection, schedule: Q01DX009 (ip), vehicle: distilled water + Tween-80): 88 % of control
- T/C (dose: 200.0 mg/kg/injection, schedule: Q01DX009 (ip), vehicle: distilled water + Tween-80): 90 % of control

Structure (SMILES): C[C@@H]1CN(c2ccccc2)C[C@H](C)OS(=O)O1 (stereo not given in full)
- T/C [11]: 105 % of control
- T/C [1]: 96 % of control
- T/C [12]: 103 % of control
- T/C [2]: 100 % of control
- T/C [13]: 97 % of control
- T/C [4]: 93 % of control

Structure (SMILES): NC(=O)CCCNC(=O)CCC[c-]1[c-][c-][c-][c-]1.[Fe].[c-]1[c-][c-][cH-][c-]1
- T/C (dose: 3.13 mg/kg/injection, schedule: Q01DX009 (ip), vehicle: other): 102 % of control
- T/C (dose: 6.25 mg/kg/injection, schedule: Q01DX009 (ip), vehicle: other): 102 % of control
- T/C (dose: 12.5 mg/kg/injection, schedule: Q01DX009 (ip), vehicle: other): 99 % of control and 96 % of control
- T/C (dose: 25.0 mg/kg/injection, schedule: Q01DX009 (ip), vehicle: other): 123 % of control
- T/C [14]: 111 % of control and 118 % of control

Structure (SMILES): O=C(CCc1cc2[nH]c1c(-c1ccccc1)c1nc(c(-c3ccccc3)c3ccc([nH]3)c(-c3ccccc3)c3nc(c2-c2ccccc2)C=C3)C=C1)OCCCc1cccnc1
- T/C [11]: 100 % of control
- T/C [12]: 105 % of control
- T/C [13]: 100 % of control
- T/C (dose: 400.0 mg/kg/injection, schedule: Q01DX001 (ip), vehicle: Klucel (hydroxypropylcellulose) (HPC)): 91 % of control

Structure (SMILES): [O-]/[N+]1=[N+](\[O-])c2ccccc2CCCc2ccccc21
- T/C [5]: 102 % of control
- T/C [6]: 100 % of control
- T/C [7]: 88 % of control

Structure (SMILES): c1ccc(-c2nnc(-c3ccccc3)nn2)cc1
- T/C (dose: 50.0 mg/kg/injection, schedule: Q04DX003 (ip), vehicle: saline with Tween-80): 100 % of control
- T/C (dose: 100.0 mg/kg/injection, schedule: Q04DX003 (ip), vehicle: saline with Tween-80): 100 % of control
- T/C (dose: 200.0 mg/kg/injection, schedule: Q04DX003 (ip), vehicle: saline with Tween-80): 97 % of control
- T/C (dose: 400.0 mg/kg/injection, schedule: Q04DX003 (ip), vehicle: saline with Tween-80): 93 % of control

Structure (SMILES): NC(=O)C(N)CCCC1NC(=S)N(c2ccccc2)C1=O (stereo not given)
- T/C [8]: 92 % of control
- T/C [9]: 93 % of control
- T/C [10]: 86 % of control

Structure (SMILES): NC(=O)C[CH2][Sn]([Cl])([Cl])[CH2]CC(N)=O
- T/C (dose: 50.0 mg/kg/injection, schedule: Q01DX005 (ip), vehicle: saline): 98 % of control
- T/C (dose: 100.0 mg/kg/injection, schedule: Q01DX005 (ip), vehicle: saline): 98 % of control
- T/C (dose: 200.0 mg/kg/injection, schedule: Q01DX005 (ip), vehicle: saline): 105 % of control

Structure (SMILES): CC(C)(C)c1cc(C#CC#Cc2cc(C(C)(C)C)cc(C(C)(C)C)c2)cc(C(C)(C)C)c1
- T/C (dose: 25.0 mg/kg/injection, schedule: Q01DX005 (ip), vehicle: Klucel (hydroxypropylcellulose) (HPC)): 86 % of control
- T/C [1]: 86 % of control

Structure (SMILES): Cl/N=N/c1nc(-c2ccccc2)[nH]c1-c1ccccc1
- T/C (dose: 50.0 mg/kg/injection, schedule: Q01DX001 (ip), vehicle: suspension in saline): 109 % of control
- T/C (dose: 100.0 mg/kg/injection, schedule: Q01DX001 (ip), vehicle: suspension in saline): 101 % of control
- T/C (dose: 200.0 mg/kg/injection, schedule: Q01DX001 (ip), vehicle: suspension in saline): 99 % of control

Structure (SMILES): Cc1ccc(S)c(C(O)(C(F)(F)F)C(F)(F)F)c1
- T/C [14]: 100 % of control
- T/C (dose: 100.0 mg/kg/injection, schedule: Q01DX009 (ip), vehicle: other): 100 % of control
- T/C (dose: 200.0 mg/kg/injection, schedule: Q01DX009 (ip), vehicle: other): 100 % of control

Structure (SMILES): CC1(C)N=C(N)N=C(N)N1c1ccc(OCCNS(=O)(=O)c2cccc(S(=O)(=O)F)c2)c(Cl)c1
- T/C (dose: 12.5 mg/kg/injection, schedule: Q01DX009 (ip), vehicle: saline): 152 % of control
- T/C (dose: 25.0 mg/kg/injection, schedule: Q01DX009 (ip), vehicle: saline): 157 % of control
- T/C [3]: 168 % of control
- T/C (dose: 100.0 mg/kg/injection, schedule: Q01DX009 (ip), vehicle: saline with Tween-80): 154 % of control

Structure (SMILES): C=CCC1(COS(N)(=O)=O)OC(n2cnc3c(N)ncnc32)C(O)C1O (stereo not given)
- T/C (dose: 50.0 mg/kg/injection, schedule: Q01DX001 (ip), vehicle: saline): 101 % of control
- T/C (dose: 100.0 mg/kg/injection, schedule: Q01DX001 (ip), vehicle: saline): 101 % of control
- T/C (dose: 200.0 mg/kg/injection, schedule: Q01DX001 (ip), vehicle: saline): 111 % of control
- T/C (dose: 400.0 mg/kg/injection, schedule: Q01DX001 (ip), vehicle: saline): 99 % of control

Structure (SMILES): CCCCCCCCCCCCCCCCN(CC)CC
- T/C (dose: 2.5 mg/kg/injection, schedule: Q01DX009 (ip), vehicle: saline): 105 % of control
- T/C (dose: 5.0 mg/kg/injection, schedule: Q01DX009 (ip), vehicle: saline): 108 % of control
- T/C (dose: 10.0 mg/kg/injection, schedule: Q01DX009 (ip), vehicle: saline): 103 % of control
